Source: patent US9376382B2, “N-substituted isopropyldimethyl azulene sulfonamide derivatives, and preparation method and use thereof” (Sichuan Guokang Pharmaceutical Co., Ltd., priority 2011, dated 2016)
“Also recorded” adds a separate entry of the source.

Columns and labels:
[1] = system: ethanol-induced gastric ulcer; assay: Anhydrous ethanol-induced gastric ulcer in mice; format: in vivo, Kunming mice; set-up: key to Gastri ulcer score (X ± SD) / Ulcer score (X ± SD) / Gastric ulcer score (X ± SD): summed pathology score: congestion 1, hemorrhage/erosion 1, linear erosion 3
Experimental: Kunming mice, half male and half female, weighing 18-22 g, provided by the West China Animal Center
(1) Azulene sodium sulphonate was added with 0.5% CMC to prepare a suspension with concentration of 0.15 mg/ml.
(2) 20 mg of Omeprazole was added with 0.5% CMC to prepare a suspension with concentration of 0.67 mg/ml.
Kunming mice were randomly grouped according the body weight (one model control group or negative control group, one Omeprazole control group or positive control group, one Azulene sodium sulphonate control group, twelve test drug groups), eight mice for each group, half male and half female.
Administration: Model control group was administrated intragastrically with 0.5% CMC solution at a dose of 0.4 ml/20 g; Omeprazole control group was administrated intragastrically with Omeprazole at a dose of 0.4 ml/20 g, Azulene sodium sulphonate control group and each test drug groups were administrated intragastrically with their respective drug at a dose of 0.4 ml/20 g. The mice in each group were administrated once a day for successive five days. 0.5 hour after final administration, the mice in each group were administrated intragastrically with 0.5 ml of anhydrous ethanol, one hour later the mice were executed and dissected, and their stomaches were taken, washed and scored according to the pathological degree. For local congestion and rubefaction, score was 1; for petechial hemorrhage or erosion, score was respectively 1, for each linear erosion, score was 3. Statistical analysis was performed. Ulcer scores were calculated, significant differences between the groups were compared and the inhibition rates of ulcer were calculated [Inhibition rate of ulcer=(ulcer score of model group−ulcer score of drug administration group)/ulcer score of model group].

[2] = High-temperature test (60° C.), stability study; format: physicochemical; conditions: open-stored; for Appearance Day 5: Day 5, cell wraps; for Appearance Day 5 / Appearance Day 10: first line given; for Appearance Day 10: Day 10, cell wraps;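 as to all read-outs here: samples kept uncovered in dishes at 60 °C for up to 10 days and examined on Day 5 and Day 10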
Experimental: (§1) The test samples were open-stored in culture dishes at 60° C. for 10 days, and taken and detected on Day 5 and Day 10. • The characteristics, especially colour change were observed. • Melting points were measured by automatic melting point apparatus. • By self-reflection, TLC is used to observe whether the spot numbers were increased after 5 days and 10 days.

[3] = Intense light irradiation test (4500LX ± 500LX), stability study; format: physicochemical; conditions: for Appearance Day 0: Day 0, cell wraps; for Appearance Day 0 / Appearance Day 5 / Appearance Day 10: first line given; for Appearance Day 5: Day 5, cell wraps; for Appearance Day 10: Day 10, cell wraps
Experimental: (§2) The test samples were open-stored in “adjustable light boxes” under the conditions of illumination of 4500LX±500LX for 10 days, and taken and detected on Day 5 and Day 10 with regards to dry items. • The characteristics, especially colour change was observed. • Melting points were measured by an automatic melting point apparatus. • By self-reflection, TLC is used to observe whether the spot numbers were increased after 5 days and 10 days.

[4] = Stability studies (light, humidity, heat), overall comparison; conditions: summary of high-temperature, high humidity and intense light tests
Experimental: as §1
(§3) The test samples were open-stored in closed constant humidity desiccators under the condition of 25° C. and relative humidity of 90%+5% for 10 days, and taken and detected on Day 5 and Day 10. Meanwhile, each sample was accurately weighed before and after test.
as §2

[5] = High humidity test (25° C., relative humidity 90% ± 5%), stability study; format: physicochemical; conditions: RH 90% ± 5%; for Appearance Day 0: Day 0, cell wraps; for Appearance Day 0 / Appearance Day 5 / Appearance Day 10: first line given; for Appearance Day 5: Day 5, cell wraps; for Appearance Day 10: Day 10, cell wraps;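 as to all read-outs here: samples kept uncovered in sealed humidity desiccators, appearance judged mainly by colour change, melting point on an automatic apparatus, TLC checked for extra spots versus start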
Experimental: as §3
The characteristics, especially colour change was observed.
Melting points were measured by an automatic melting point apparatus.
By self-reflection, TLC is used to observe whether the spot numbers were increased after 5 days and 10 days.

[6] = Table 5 data, relative increase

Row | Melting point Day 0 [2] | Spot numbers on TLC Day 0 [2] | Melting point Day 5 [2] | Spot numbers on TLC Day 5 [2] | Appearance Day 5 [2] | Melting point Day 10 [2] | Spot numbers on TLC Day 10 [2] | Appearance Day 10 [2] | melting point [°C] | Melting point Day 0 [3] | Spot numbers on TLC Day 0 [3] | Appearance Day 0 [3] | Melting point Day 5 [3] | Spot numbers on TLC Day 5 [3] | Appearance Day 5 [3] | Spot numbers on TLC Day 10 [3] | Appearance Day 10 [3] | Melting point Day 0 [5] | Spot numbers on TLC Day 0 [5] | Structure (SMILES) | light, humidity and heat stability in words [4] | further results
1 | 87.5-89.0 °C | 1 | 88.0-89.0 °C | 1 | purple | 88.0-89.0 °C | 1 | purple | 88 to 90 | 87.5-89.0 °C | 1 | purple | 87.5-89.0 °C | 1 | purple | 1 | purple | 87.5-89.0 °C | 1 | Cc1cc(S(=O)(=O)Nc2ccc(N)cc2)c2c(C)ccc(C(C)C)cc1-2 [4l, N-(4-aminophenyl)-3,8-dimethyl-5-isopropyl-1-azulene sulfonamide] | better light, humidity and heat stability than azulene sulfonate sodium | Inhibition rate (%) ([1]; Table 5, inhibition rate of ulcer vs model group): 45.20%; Ulcer score (X ± SD) ([1]; Table 5, mice, intragastric once a day for five days, equimolar doses, model group 20.33 ± 12.23): 11.14 ± 6.41; increase of inhibition rate compared to Omeprazole [1, 6]: 23%; increase of inhibition rate compared to azulene sulfonate sodium [1, 6]: 38%; anti-gastric ulcer effect in words ([1]; ethanol-induced gastric ulcer in mice, compared to the model group): significantly relieve the pathological degree; also recorded: better therapeutic effect on gastric ulcer than azulene sulfonate sodium and omeprazole; Melting point Day 10 [3]: 87.5-89.5 °C; hygroscopic rate (%) Day 0 [5]: 1.09%; Appearance Day 0 [5]: purple; Melting point Day 5 [5]: 87.5-89.5 °C; Spot numbers on TLC Day 5 [5]: 1; hygroscopic rate (%) Day 5 [5]: 1.81%; Appearance Day 5 [5]: purple; Melting point Day 10 [5]: 87.5-89.5 °C; Spot numbers on TLC Day 10 [5]: 1; Appearance Day 10 [5]: purple
2 | 117.0-118.0 °C | 1 | 117.5-118.5 °C | 1 | purple | 117.5-118.5 °C | 1 | purple | 117 to 118 | 117.0-118.0 °C | 1 | purple | 117.5-118.0 °C | 1 | purple | 2 | purple | 117.0-118.0 °C | 1 | Cc1cc(S(=O)(=O)NCC(C)C)c2c(C)ccc(C(C)C)cc1-2 [4e, N-isobutyl-3,8-dimethyl-5-isopropyl-1-azulene sulfonamide] | better light, humidity and heat stability than azulene sulfonate sodium | Melting point Day 10 [3]: 115.0-117.5 °C; hygroscopic rate (%) Day 0 [5]: 1.07%; Appearance Day 0 [5]: purple; Melting point Day 5 [5]: 116.5-118.5 °C; Spot numbers on TLC Day 5 [5]: 1; hygroscopic rate (%) Day 5 [5]: 1.51%; Appearance Day 5 [5]: purple; Melting point Day 10 [5]: 116.5-118.5 °C; Spot numbers on TLC Day 10 [5]: 1; Appearance Day 10 [5]: purple
3 | 127.5-130.0 °C | 1 | 127.5-129.5 °C | 1 | purple | 127.5-129.5 °C | 1 | purple | 128 to 130 | 127.5-130.0 °C | 1 | purple | 127.0-129.5 °C | 1 | purple | 2 | purple | 127.5-130.0 °C | 1 | Cc1cc(S(=O)(=O)NC(C)C)c2c(C)ccc(C(C)C)cc1-2 [4c, N,5-diisopropyl-3,8-dimethyl-1-azulene sulfonamide] | better light, humidity and heat stability than azulene sulfonate sodium | Melting point Day 10 [3]: 125.0-126.5 °C; hygroscopic rate (%) Day 0 [5]: 0.95%; Appearance Day 0 [5]: purple; Melting point Day 5 [5]: 128.0-130.5 °C; Spot numbers on TLC Day 5 [5]: 1; hygroscopic rate (%) Day 5 [5]: 1.32%; Appearance Day 5 [5]: purple; Melting point Day 10 [5]: 128.0-130.5 °C; Spot numbers on TLC Day 10 [5]: 1; Appearance Day 10 [5]: purple
4 | 146.0-148.5 °C | 1 | 146.0-148.0 °C | 1 | purple | 145.5-147.5 °C | 1 | purple | 146 to 148 | 146.0-148.5 °C | 1 | purple | 145.0-147.5 °C | 1 | purple | 2 | purple | 146.0-148.5 °C | 1 | Cc1ccc(NS(=O)(=O)c2cc(C)c3cc(C(C)C)ccc(C)c2-3)cc1 [4g, N-(4-methylphenyl)-3,8-dimethyl-5-isopropyl-1-azulene sulfonamide] | better light, humidity and heat stability than azulene sulfonate sodium | Melting point Day 10 [3]: 143.5-147.5 °C; hygroscopic rate (%) Day 0 [5]: 1.56%; Appearance Day 0 [5]: purple; Melting point Day 5 [5]: 145.5-148.5 °C; Spot numbers on TLC Day 5 [5]: 1; hygroscopic rate (%) Day 5 [5]: 2.01%; Appearance Day 5 [5]: purple; Melting point Day 10 [5]: 145.5-148.5 °C; Spot numbers on TLC Day 10 [5]: 1; Appearance Day 10 [5]: purple
5 | 124.0-125.5 °C | 1 | 124.0-125.5 °C | 1 | dark blue | 124.0-125.5 °C | 1 | blue | 124 to 126 | 124.0-125.5 °C | 1 | dark blue | 123.5-125.5 °C | 1 | dark | 2 | blue | 124.0-126.0 °C | 1 | Cc1cc(S(=O)(=O)NCc2ccccc2)c2c(C)ccc(C(C)C)cc1-2 [4j, N-benzyl-3,8-dimethyl-5-isopropyl-1-azulene sulfonamide] | better light, humidity and heat stability than azulene sulfonate sodium | hygroscopic rate (%) Day 0 [5]: 1.24%; Appearance Day 0 [5]: dark; Melting point Day 5 [5]: 124.0-126.5 °C; Spot numbers on TLC Day 5 [5]: 1; hygroscopic rate (%) Day 5 [5]: 2.08%; Appearance Day 5 [5]: dark; Melting point Day 10 [5]: 124.5-126.5 °C; Spot numbers on TLC Day 10 [5]: 1; Appearance Day 10 [5]: blue
6 | 59.5-62.5 °C | 1 | 60.0-62.0 °C | 1 | purple | 60.0-62.0 °C | 1 | purple | 60 to 62 | 59.5-62.5 °C | 1 | purple | 58.5-62.0 °C | 1 | purple | 2 | purple | 59.5-62.5 °C | 1 | CCCNS(=O)(=O)c1cc(C)c2cc(C(C)C)ccc(C)c1-2 [4f, N-propyl-3,8-dimethyl-5-isopropyl-1-azulene sulfonamide] | better light, humidity and heat stability than azulene sulfonate sodium | Melting point Day 10 [3]: 57.5-61.5 °C; hygroscopic rate (%) Day 0 [5]: 1.13%; Appearance Day 0 [5]: purple; Melting point Day 5 [5]: 59.5-63.0 °C; Spot numbers on TLC Day 5 [5]: 1; hygroscopic rate (%) Day 5 [5]: 1.28%; Appearance Day 5 [5]: purple; Melting point Day 10 [5]: 59.5-63.0 °C; Spot numbers on TLC Day 10 [5]: 1; Appearance Day 10 [5]: purple
